# Results reported in US20230285357A1, “COMPOSITIONS AND METHODS FOR […] CELLS” (The Regents of the University of California, priority 2020, published 2023).
# Columns and labels:
# vascular repair = assay: Hindlimb ischemia model in nude mice after cell transplantation; type: in vivo, mouse
# Method: Then, same cells in a model of hindlimb ischemia in nude mice to evaluate the capacity of eGFP positive cells in vascular repair were tested. After ligation of the proximal and distal femoral artery, eGFP positive cells were transplanted (FIG. 2, Part F). Human aortic endothelial cells (HAECs) and osteoblasts were used as controls.
# Tube formation assays in vitro was then tested. […] Cells into hindlimb ischemia mouse model were transplanted.
# Laser Doppler perfusion imaging was performed using real-time microcirculation imaging system (Perimed). The imaging was conducted under normal ambient room lighting. 20×27 mm high resolution model was used with 1388×1038 pixels measurement camera and 752×580 pixels documentation camera as one image per second. The image resolution was set up as 20 μm/pixel and 21 images per frame until stopped. Windows based PIMSoft software (Perimed) was used to process the data.
# The murine model of hindlimb ischemia was performed as previously described. A 10 mm long incision of the skin was made towards the medial thigh. The femoral artery was exposed and separated from femoral vein and nerve. Silk sutures were used to tie the proximal and the distal end of femoral artery with double knots. The cells (5×10^5) were transplanted into the surgical area and the incision was closed. Laser Doppler perfusion imaging was used to monitor the blood flow at different time points. Histology and immunostaining were used to examine the vascularization 2 weeks after transplantation.
# [1] = test system: vascular calcification in Mgp−/− mice; assay: Late vascular calcification in Mgp−/− mice; type: in vivo, mouse
# Method: It was next examined if SB216763 reversed osteogenesis in vascular calcification by treating Mgp^−/− mice at 4 weeks of age for 2 weeks (FIG. 5, Part F).
# Mgp^+/− (B6.129S7-Mgptm1Kry/KbosJ), Col1α1^CreERT2 (B6.Cg-Tg(Col1α1-cre/ERT2)1Crm/J), GSK3β^flox/flox (B6.129(Cg)-Gsk3btm2Jrw/J) and Osx-Gfptg (B6.Cg-Tg(Sp7-tTA,tetO-EGFP/cre)1Amc/J) mice on C57BL/6J background were purchased from the Jackson Laboratory. Genotypes were confirmed by PCR, and experiments were performed with generation F4-F6. Littermates were used as wild type controls. All mice were fed a standard chow diet. The studies were reviewed and approved by the Institutional Review Board and conducted in accordance with the animal care guidelines set by the University of California, Los Angeles (UCLA). The investigation conformed to the National Research Council, Guide for the Care and Use of Laboratory Animals, Eighth Edition (Washington, D.C.: The National Academies Press, 2011).
# MicroCT imaging was performed at the Crump Imaging Center at UCLA. All the samples were scanned on a high-resolution, volumetric microCT scanner (CT125). The image data were acquired with the following parameters: 10 μm isotropic voxel resolution; 200 ms exposure time; 2,000 views and 5 frames per view. The microCT-generated DICOM files were used to analyze the samples and to create volume renderings of the regions of interest. The raw data files were viewed using the MicroView 3-D volume viewer and analysis tool (GE Healthcare) and AltaViewer™ Software. Additionally, images of the samples were generated using SCIRun (Scientific Computing and Imaging Institute).
# [2] = Mgp−/− mice at 4 weeks of age treated for 2 weeks
structure (smiles),measurement,setting,value
Cn1cc(C2=C(c3ccc(Cl)cc3Cl)C(=O)NC2=O)c2ccccc21 [SB216763],"blood flow, Laser Doppler perfusion imaging",vascular repair; SB216763-treated cells with restoring SMAD1 vs controls,No difference was observed
same,"blood flow, Laser Doppler perfusion imaging",vascular repair; SB216763-treated osteoblasts with depletion of β-catenin vs cells without depletion,less blood flow
same,"vascular density, histology and immunostaining",vascular repair; transplanted eGFP positive cells,increase in vascular density
same,"limb blood flow, Laser Doppler perfusion imaging",vascular repair; transplanted eGFP positive cells compared to osteoblasts,significantly higher limb blood flow
same,"CD31-positive cells co-expressing VE-cadherin and osterix, FACS",[1]; [2],decrease of CD31-positive cells that co-expressed VE-cadherin and osterix
same,"CD31-positive cells expressing VE-cadherin only, FACS",[1]; [2],increase of CD31-positive cells that expressed VE-cadherin only
same,"aortic calcification, microCT imaging",[1]; [2],reduction of aortic calcification
same,histology of calcified areas of the aortas,[1]; [2],change in morphology in calcified areas of the aortas
same,"mineralization of whole aortic tissues, alizarin red staining",[1]; [2],reduction of mineralization
same,total aortic calcium and mineral deposition,[1]; [2],decrease of total aortic calcium and mineral deposition
same,"osteogenic markers in aortic tissue, real-time PCR",[1]; treated Mgp−/− mice compared to non-treated mice,decrease of osteogenic markers
